According to US20190175467A1, “COMPOSITION FOR THE TREATMENT OF ACNE” (ROTTAPHARM LTD., priority 2015, published 2019):
In brackets after ≈: the same amount, converted by molar mass.

Experiments:
[1] = test system: Staphylococcus epidermidis ATCC 12228; test: Determination of MIC and MBC, Staphylococcus epidermidis; type: cell-based; conditions: for MBC: ATCC12228; for MIC: ATCC12228, read-out: MIC
Procedure: (§1) A series of test tubes was prepared containing the culture broth inoculated with the test micro-organism and the substance to be tested was introduced at decreasing scalar concentrations. […] The test tubes in which the microbial population developed were then determined by observing visually the turbidity that is indicative of growth. Test tubes in which the substance is present at a sufficient concentration to inhibit growth remain clear. When the nature itself of the sample prevents visual reading or if it is wished to determine whether the lack of development is due to a microbiostatic or microbicidal action, transfers are made to appropriate agar media for confirmation. The concentration of sample at which growth of the micro-organisms is inhibited is considered to be the Minimum Inhibitory Concentration (MIC), while that at which viable micro-organisms are no longer present is considered to be the Minimum Bactericidal Concentration (MBC) The antibacterial activity of these substances against Staphylococcus aureus acnes ATCC 25923 and Staphylococcus epidermidis ATCC 12228 was tested according to the above-described method.

[2] = test system: Staphylococcus aureus ATCC 25923; test: Determination of MIC and MBC, Staphylococcus aureus; type: cell-based; conditions: for MBC: ATCC25923; for MIC: ATCC25923, read-out: MIC
Procedure: as §1

[3] = test system: Propionibacterium acnes ATCC 11827; conditions: common knowledge; cited from earlier work
[4] = test system: Propionibacterium acnes ATCC 11827; test: Determination of MIC and MBC, P. acnes; type: cell-based; conditions: Cutibacterium acnes, ATCC11827; Propionibacterium acnes ATCC 11827, 2.6×10^4 cells per milliliter
Procedure: as §1, with “(MBC) In a further set of experiments we tested the” for “(MBC) The”, “of Salix alba extract and 1,2-decanediol, a substance which is known to show antibacterial activity” for “of these substances”, “against P. acnes, alone” for “against Staphylococcus aureus acnes ATCC 25923”, “and in combination” for “and Staphylococcus epidermidis ATCC 12228 was tested”, “method. The microbial strain used was Propionibacterium acnes ATCC 11827 titrated at a concentration of 2.6×10^4 cells per milliliter of medium.” for “method.”

IL1alpha = test: Anti-inflammatory activity: LPS-induced IL1alpha release in HaCat keratinocytes (ELISA); type: cell-based, human
Excerpt: (§2) The aim of the test was the evaluation of the anti-inflammatory activity of Salix alba extract, 1,2-decanediol and their combination by means of the study of TNFalpha, IL1alpha, IL8 synthesis modulation in a biological experimental model (keratinocyte cell culture HaCat).
(§3) In order to stimulate the inflammatory process in our experimental model, lipopolysaccharides (LPS) were selected. LPS are pro-inflammatory mediators secreted by bacteria, e.g. by P. acnes.
(§4) 1,2-decanediol (SMAL) was emulsified with corn oil (37° C.) in mechanical agitation and addition of culture medium, starting from the following ratio: 0.05 g emulsified with 100 μl corn oil in a final volume of culture medium of 1 ml (37° C.).
(§5) Salix alba extract (WMAL) was direct diluted in culture medium, starting from the following ratio: 0.05 g in 1 ml (37° C.); subsequent dilutions in culture medium (37° C.). […]
(§6) At the end of the monitored experimental period, cytokine levels were measured by means of ELISA assay. […]
(§7) Commercial ELISA kits were used for the determination of cytokine quantity.
(§8) The quantitative determination uses a calibration curve made-up of standard known and growing concentrations of standard cytokine. […]
(§9) In order to compare the two different work sessions, the obtained data were normalized in a 0-100% scale, in which CTR− is 0 and CTR+ is 100%; all the other data were calculated in this interval.

IL8 = test: Anti-inflammatory activity: LPS-induced IL8 release in HaCat keratinocytes (ELISA); type: cell-based, human
Excerpt: as §2, §3, §4, §5, §6, §7, §8, §9

TNFalpha = test: Anti-inflammatory activity: LPS-induced TNFalpha release in HaCat keratinocytes (ELISA); type: cell-based, human
Excerpt: as §2, §3, §4, §5, §6, §7, §8, §9

IL-6 = test: Anti-inflammatory activity: LPS-induced IL-6 release in HaCat keratinocytes (ELISA), as headed in Table 3; type: cell-based, human; conditions: HaCat + LPS 10 ng/ml; CTR− is 0, CTR+ is 100%; WMAL 0.4%, SMAL 0.02%
[5] = HaCat + LPS 10 ng/ml, CTR− is 0, CTR+ is 100%, WMAL 0.4%, SMAL 0.02%

## Oc1ccc(C=Cc2cc(O)cc(O)c2)cc1 [Resveratrol]
[1]
  MBC: > 100000 µg/mL
  MIC: 250 µg/mL (≈ 1100 µM)
[2]
  MBC: > 100000 µg/mL
  MIC: 1000 µg/mL (≈ 4380 µM)

## CCCCCCCCCCCC(=O)O [Lauric Acid, Lauric acid]
[1]
  MBC: 1000 µg/mL (≈ 4990 µM)
  MIC: 500 µg/mL (≈ 2500 µM)

## C=C[C@@](C)(/C=C/c1ccc(O)cc1)CCC=C(C)C [Bakuchiol]
[1]
  MBC: 100 µg/mL (≈ 390 µM)
  MIC: 6.25 µg/mL (≈ 24.4 µM)
[2]
  MBC: 100 µg/mL (≈ 390 µM)
  MIC: 6.25 µg/mL (≈ 24.4 µM)

## CCCCCCCCC(O)CO (stereo not shown) [1,2-decanediol]
[3]
  antibacterial activity against P. acnes, as known (in words): effective
[4]
  MBC: 1250 µg/mL
  MIC: 620 µg/mL
IL1alpha
  effect on LPS-induced release of IL1alpha (in words): significantly reduce
IL8; HaCat + LPS
  effect on LPS-induced release of IL8 (in words): significantly reduce
IL8; [5]
  IL-8, normalized data 0-100%: 34.56%
TNFalpha; HaCat + LPS
  effect on LPS-induced release of TNFalpha (in words): significantly reduce
TNFalpha; [5]
  TNF-ALPHA, normalized data 0-100%: 18.45%
IL-6
  IL-6, normalized data 0-100%: 61.69%

## O=C(OOC(=O)c1ccccc1)c1ccccc1 [benzoyl peroxide]
[3]
  antibacterial activity against P. acnes, as known (in words): strong antibacterial agent
[4]
  MBC: 480 µg/mL
  MIC: 480 µg/mL
